This assay has as its system SARS-CoV-2 M protein level. It counts as cell-based, human.

Consider `COC[C@H]1OC(=O)c2coc3c2[C@@]1(C)C1=C(C3=O)[C@@H]2CCC(=O)[C@@]2(C)C[C@H]1OC(C)=O` [wortmannin], for which the “decrease in M protein levels induced by SQSTM1” value is “rescued”.

Regarding `CCN(CC)CCCC(C)Nc1ccnc2cc(Cl)ccc12` (stereo not drawn) [CQ, chloroquine], the “IMβ3-5-promoted degradation of M, VP2 and PB1-F2” value is on record as “blocked”; the “decrease in M protein levels induced by SQSTM1” value is listed as “rescued”.

The values are drawn from publication PMC11484861 (Nature Communications, 2024).
